Assay [1] has as its target Prostaglandin G/H synthase 1 (Homo sapiens) (UniProt P23219). Put plainly: Inhibition of COX1 at 100 ug/mL.
Assay [2] deals with AGS. Kind of assay: Cytotoxicity against human AGS cells by MTT assay. The format is functional.
Assay [3] relates to MCF7. Kind of assay: Cytotoxicity against human MCF7 cells by MTT assay. The assay is classed as functional. (In general: Formazan colour is commonly taken as a measure of viable cells.)
In assay [4] the test system is SF-268. Put plainly: Cytotoxicity against human SF-268 cells by MTT assay. The assay is classed as functional.
The nature of assay [5]: Cytotoxicity against human HCT 116 cells by MTT assay. The assay is classed as functional.
Assay [6] deals with NCI-H460. Kind of assay: Cytotoxicity against human NCI-H460 cells by MTT assay. The format is functional.
The target in assay [7] is T1, Prostaglandin G/H synthase 2 (Homo sapiens) (UniProt P35354).
T1 sequence (whole entry): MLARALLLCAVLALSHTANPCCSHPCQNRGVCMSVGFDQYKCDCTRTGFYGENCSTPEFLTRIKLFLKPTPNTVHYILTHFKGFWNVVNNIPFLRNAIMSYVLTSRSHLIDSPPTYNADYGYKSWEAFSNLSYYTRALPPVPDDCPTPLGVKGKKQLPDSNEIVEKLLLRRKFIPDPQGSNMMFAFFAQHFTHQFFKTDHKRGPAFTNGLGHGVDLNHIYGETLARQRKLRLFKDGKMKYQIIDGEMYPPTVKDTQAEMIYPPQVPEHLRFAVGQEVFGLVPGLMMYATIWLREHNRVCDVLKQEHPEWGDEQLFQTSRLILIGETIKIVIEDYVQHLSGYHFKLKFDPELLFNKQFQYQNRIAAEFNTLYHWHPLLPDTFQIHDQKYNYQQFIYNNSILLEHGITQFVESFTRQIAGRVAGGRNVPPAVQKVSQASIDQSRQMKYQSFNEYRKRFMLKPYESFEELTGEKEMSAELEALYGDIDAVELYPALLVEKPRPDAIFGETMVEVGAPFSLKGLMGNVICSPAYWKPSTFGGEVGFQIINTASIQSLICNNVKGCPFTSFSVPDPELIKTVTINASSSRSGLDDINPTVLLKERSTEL
Put plainly: Inhibition of COX2 at 100 ug/mL.

Prostaglandin G/H synthase 1 (Homo sapiens), sequence (P23219 whole entry): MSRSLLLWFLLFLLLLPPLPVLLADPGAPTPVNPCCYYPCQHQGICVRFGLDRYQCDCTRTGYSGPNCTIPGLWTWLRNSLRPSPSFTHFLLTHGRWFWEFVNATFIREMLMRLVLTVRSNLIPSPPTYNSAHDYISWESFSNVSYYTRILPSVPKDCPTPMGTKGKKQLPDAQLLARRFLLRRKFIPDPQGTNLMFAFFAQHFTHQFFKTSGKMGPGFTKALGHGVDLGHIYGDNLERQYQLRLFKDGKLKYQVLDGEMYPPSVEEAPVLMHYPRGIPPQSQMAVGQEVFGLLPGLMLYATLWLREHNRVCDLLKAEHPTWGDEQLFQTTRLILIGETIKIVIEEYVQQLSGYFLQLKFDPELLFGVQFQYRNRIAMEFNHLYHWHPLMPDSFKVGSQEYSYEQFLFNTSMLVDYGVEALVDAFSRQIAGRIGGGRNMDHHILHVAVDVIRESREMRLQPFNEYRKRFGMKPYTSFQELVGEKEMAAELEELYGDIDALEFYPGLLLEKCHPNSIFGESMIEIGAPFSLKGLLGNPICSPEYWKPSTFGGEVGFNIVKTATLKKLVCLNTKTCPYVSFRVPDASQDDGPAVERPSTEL

The inhibition is the relative decrease from the control value, in per cent. With `CC1=C(CO)C(=O)O[C@@H]([C@@H](C)[C@H]2CC[C@H]3[C@@H]4C[C@H](S[C@H]5C[C@H]6[C@@H]7CC[C@H]([C@H](C)[C@H]8CC(C)=C(CO)C(=O)O8)[C@@]7(C)CC[C@@H]6[C@@]6(C)C(=O)C=C[C@H](O)[C@@]56O)[C@]5(O)[C@@H](O)C=CC(=O)[C@]5(C)[C@H]4CC[C@]23C)C1` [ASHWAGANDHANOLIDE], the inhibition in assay [1] stood at 65%; in assay [7], 60%. The IG50 is 0.43 µg/mL in assay [2]; 1.45 µg/mL in assay [3]; 0.84 µg/mL in assay [4]; 1.25 µg/mL in assay [5]; 1.48 µg/mL in assay [6].

These data come from ChEMBL document CHEMBL1158136, “Ashwagandhanolide, a bioactive dimeric thiowithanolide isolated from the roots of Withania somnifera” (2006).
